BigSolDB 2.1

c1ccc2[nH]c(-c3cscn3)nc2c1 showed a solubility (mole fraction) (in 2-butanone, 283.15 K) of 0.0012, a solubility (mole fraction) (in 2-butanone, 288.15 K) of 0.00137 and a solubility (mole fraction) (in 2-butanone, 293.15 K) of 0.00151. The solubility (mole fraction) (in 2-butanone, 298.15 K) was 0.00161, the solubility (mole fraction) (in 2-butanone, 303.15 K) was 0.00186 and the solubility (mole fraction) (in 2-butanone, 308.15 K) was 0.00209. It also gave a solubility (mole fraction) (in 2-butanone, 313.15 K) of 0.00223, a solubility (mole fraction) (in 2-butanone, 318.15 K) of 0.00241 and a solubility (mole fraction) (in 2-butanone, 323.15 K) of 0.0025. The solubility (mole fraction) (in acetone, 283.15 K) was 0.000605, the solubility (mole fraction) (in acetone, 288.15 K) was 0.000711 and the solubility (mole fraction) (in acetone, 293.15 K) was 0.000796. It also gave a solubility (mole fraction) (in acetone, 298.15 K) of 0.000936, a solubility (mole fraction) (in acetone, 303.15 K) of 0.00105 and a solubility (mole fraction) (in acetone, 308.15 K) of 0.00119. The solubility (mole fraction) (in acetone, 313.15 K) was 0.00139, the solubility (mole fraction) (in acetone, 318.15 K) was 0.00153 and the solubility (mole fraction) (in acetone, 323.15 K) was 0.00173. The solubility (mole fraction) (in acetonitrile, 283.15 K) was 0.000112, the solubility (mole fraction) (in acetonitrile, 288.15 K) was 0.00012 and the solubility (mole fraction) (in acetonitrile, 293.15 K) was 0.000145. It also gave a solubility (mole fraction) (in acetonitrile, 298.15 K) of 0.000149, a solubility (mole fraction) (in acetonitrile, 303.15 K) of 0.000209 and a solubility (mole fraction) (in acetonitrile, 308.15 K) of 0.000253. For the same compound, the solubility (mole fraction) (in acetonitrile, 313.15 K) was 0.000309, the solubility (mole fraction) (in acetonitrile, 318.15 K) was 0.000339 and the solubility (mole fraction) (in acetonitrile, 323.15 K) was 0.000403. For the same compound, the solubility (mole fraction) (in ethanol, 283.15 K) was 0.00128, the solubility (mole fraction) (in ethanol, 288.15 K) was 0.0014 and the solubility (mole fraction) (in ethanol, 293.15 K) was 0.00153. The solubility (mole fraction) (in ethanol, 298.15 K) was 0.00163, the solubility (mole fraction) (in ethanol, 303.15 K) was 0.00192 and the solubility (mole fraction) (in ethanol, 308.15 K) was 0.00213. It also gave a solubility (mole fraction) (in ethanol, 313.15 K) of 0.00234, a solubility (mole fraction) (in ethanol, 318.15 K) of 0.00274 and a solubility (mole fraction) (in ethanol, 323.15 K) of 0.00295. For the same compound, the solubility (mole fraction) (in ethyl acetate, 283.15 K) was 0.000435, the solubility (mole fraction) (in ethyl acetate, 288.15 K) was 0.000523 and the solubility (mole fraction) (in ethyl acetate, 293.15 K) was 0.000638. For the same compound, the solubility (mole fraction) (in ethyl acetate, 298.15 K) was 0.000704, the solubility (mole fraction) (in ethyl acetate, 303.15 K) was 0.000825 and the solubility (mole fraction) (in ethyl acetate, 308.15 K) was 0.000956. For the same compound, the solubility (mole fraction) (in ethyl acetate, 313.15 K) was 0.00109, the solubility (mole fraction) (in ethyl acetate, 318.15 K) was 0.00116 and the solubility (mole fraction) (in ethyl acetate, 323.15 K) was 0.00127. For the same compound, the solubility (mole fraction) (in isobutanol, 283.15 K) was 0.000905, the solubility (mole fraction) (in isobutanol, 288.15 K) was 0.00104 and the solubility (mole fraction) (in isobutanol, 293.15 K) was 0.00123. The solubility (mole fraction) (in isobutanol, 298.15 K) was 0.00144, the solubility (mole fraction) (in isobutanol, 303.15 K) was 0.00176 and the solubility (mole fraction) (in isobutanol, 308.15 K) was 0.00202. The solubility (mole fraction) (in isobutanol, 313.15 K) was 0.0023, the solubility (mole fraction) (in isobutanol, 318.15 K) was 0.00258 and the solubility (mole fraction) (in isobutanol, 323.15 K) was 0.00294. The solubility (mole fraction) (in isopropanol, 283.15 K) was 0.000699, the solubility (mole fraction) (in isopropanol, 288.15 K) was 0.000762 and the solubility (mole fraction) (in isopropanol, 293.15 K) was 0.00089. The solubility (mole fraction) (in isopropanol, 298.15 K) was 0.000954, the solubility (mole fraction) (in isopropanol, 303.15 K) was 0.00118 and the solubility (mole fraction) (in isopropanol, 308.15 K) was 0.00136. For the same compound, the solubility (mole fraction) (in isopropanol, 313.15 K) was 0.0016, the solubility (mole fraction) (in isopropanol, 318.15 K) was 0.00182 and the solubility (mole fraction) (in isopropanol, 323.15 K) was 0.00198. It also gave a solubility (mole fraction) (in methanol, 283.15 K) of 0.00133, a solubility (mole fraction) (in methanol, 288.15 K) of 0.00142 and a solubility (mole fraction) (in methanol, 293.15 K) of 0.00158. The solubility (mole fraction) (in methanol, 298.15 K) was 0.00167, the solubility (mole fraction) (in methanol, 303.15 K) was 0.00211 and the solubility (mole fraction) (in methanol, 308.15 K) was 0.00219. The solubility (mole fraction) (in methanol, 313.15 K) was 0.00244, the solubility (mole fraction) (in methanol, 318.15 K) was 0.00279 and the solubility (mole fraction) (in methanol, 323.15 K) was 0.00301. It also gave a solubility (mole fraction) (in methyl acetate, 283.15 K) of 0.000378, a solubility (mole fraction) (in methyl acetate, 288.15 K) of 0.000515 and a solubility (mole fraction) (in methyl acetate, 293.15 K) of 0.000608. For the same compound, the solubility (mole fraction) (in methyl acetate, 298.15 K) was 0.000636, the solubility (mole fraction) (in methyl acetate, 303.15 K) was 0.000758 and the solubility (mole fraction) (in methyl acetate, 308.15 K) was 0.000822. It also gave a solubility (mole fraction) (in methyl acetate, 313.15 K) of 0.000899, a solubility (mole fraction) (in methyl acetate, 318.15 K) of 0.000953 and a solubility (mole fraction) (in methyl acetate, 323.15 K) of 0.00117. It also gave a solubility (mole fraction) (in n-butanol, 283.15 K) of 0.0016, a solubility (mole fraction) (in n-butanol, 288.15 K) of 0.0018 and a solubility (mole fraction) (in n-butanol, 293.15 K) of 0.00193. The solubility (mole fraction) (in n-butanol, 298.15 K) was 0.0022, the solubility (mole fraction) (in n-butanol, 303.15 K) was 0.00266 and the solubility (mole fraction) (in n-butanol, 308.15 K) was 0.0029. For the same compound, the solubility (mole fraction) (in n-butanol, 313.15 K) was 0.00337, the solubility (mole fraction) (in n-butanol, 318.15 K) was 0.00371 and the solubility (mole fraction) (in n-butanol, 323.15 K) was 0.00416. For the same compound, the solubility (mole fraction) (in n-butyl acetate, 283.15 K) was 0.000445, the solubility (mole fraction) (in n-butyl acetate, 288.15 K) was 0.000544 and the solubility (mole fraction) (in n-butyl acetate, 293.15 K) was 0.000646. The solubility (mole fraction) (in n-butyl acetate, 298.15 K) was 0.000724, the solubility (mole fraction) (in n-butyl acetate, 303.15 K) was 0.000881 and the solubility (mole fraction) (in n-butyl acetate, 308.15 K) was 0.00098. The solubility (mole fraction) (in n-butyl acetate, 313.15 K) was 0.00114, the solubility (mole fraction) (in n-butyl acetate, 318.15 K) was 0.00122 and the solubility (mole fraction) (in n-butyl acetate, 323.15 K) was 0.00136. For the same compound, the solubility (mole fraction) (in n-propanol, 283.15 K) was 0.00137, the solubility (mole fraction) (in n-propanol, 288.15 K) was 0.00148 and the solubility (mole fraction) (in n-propanol, 293.15 K) was 0.00173. It also gave a solubility (mole fraction) (in n-propanol, 298.15 K) of 0.00181, a solubility (mole fraction) (in n-propanol, 303.15 K) of 0.00217 and a solubility (mole fraction) (in n-propanol, 308.15 K) of 0.00246. The solubility (mole fraction) (in n-propanol, 313.15 K) was 0.00274, the solubility (mole fraction) (in n-propanol, 318.15 K) was 0.00303 and the solubility (mole fraction) (in n-propanol, 323.15 K) was 0.00347.
